The numbers were not newly measured in publication PMC10056485 (International Journal of Molecular Sciences, 2023), which cites them from elsewhere.

For series [1] the following is noted: cited from earlier work.
Details of series [2]: method as in PMID 32533042. The conditions noted are these: cited from earlier work; for Complete recanalization rate: p = 0.014.

The structures appear in SMILES notation. Where two headings read alike, the source gives them in different places.

In the case of `CNC(=O)c1cc(Oc2ccc(NC(=O)Nc3ccc(Cl)c(C(F)(F)F)c3)c(F)c2)ccn1` [regorafenib], the “Increase of AUC of regorafenib” value in series [1] (sequential RT9Gyx3f'x group) is listed as 1.3 fold.

Take `COc1cc2nccc(Oc3ccc(NC(=O)NC4CC4)c(Cl)c3)c2cc1C(N)=O` [lenvatinib]: the “Increase of AUC of lenvatinib” value in series [1] (sequential RT9Gyx3f'x group) is on record as 2 fold.

As to `CNC(=O)c1cc(Oc2ccc(NC(=O)Nc3ccc(Cl)c(C(F)(F)F)c3)cc2)ccn1` [sorafenib], the “Increase of AUC of sorafenib” value in series [1] (concurrent RT9Gy groups) was 4 fold; in series [1] (sequential RT9Gy group), 1.6 fold. Moreover, the “Complete recanalization rate, SBRT relative to conventional RT” value in series [2] (SBRT with sorafenib versus conventional RT) is listed as 3 fold. Further, the Complete recanalization rate in series [2] (SBRT with sorafenib) is given as 28%; in series [2] (conventional RT with sorafenib), 8%.
